Series [1] can be described thus: Evaluation of stability by HPLC analysis of everolimus samples stored at 37, 25 and 4° C. Type of series: physicochemical. The procedure:
Everolimus (Selleck Chemicals, Aurogene, Rome, Italy) was dissolved in DMSO (VWR, Milan, Italy) at a concentration of 1 mg/ml. The everolimus solution was subsequently diluted in 10% v/v DMSO/saline solution until obtaining a final concentration of 10 μg/ml. The resulting solution was then incubated at 4, 25 and 37° C.
Carefully weighed amounts of everolimus and distearoylphosphoethanolam ine-polyethylene glycol 2000 (DSPE-PEG2000, Lipoid, Switzerland) were dissolved in 3 ml of chloroform (Sigma-Aldrich, Milan, Italy) in a 50 ml flask. The solvent was removed by light evaporation at room temperature under a flow of nitrogen and vacuum dried for 1 hour to eliminate residual traces. The thin film obtained was reconstituted in an exact volume (3 mL) of aqueous medium. After complete reconstitution a clear micellar dispersion was obtained. The dispersion was then incubated at 4, 25 and 37° C.
The drug was quantified using the HPLC method. Briefly, the instrument used is a Portlab STAYER HPLC system equipped with a UV detector, a parallel pump and Triathlon autosampler (Portlab, Rome, Italy). The conditions used are the following: isocratic mode with acetonitrile:water (60:40, v/v) eluted at 0.8 ml/min and a Zorbax C8 column, 4.6 mm ID×250 mm, 5 μm (Agilent, Milan, Italy) equilibrated at 55° C. UV detection was performed at 278 nm. A calibration curve was constructed in the concentration interval of 0.62-10 μg/mL (r^2=0.9992).
The samples of solution were injected directly (injection volume 15 μL), whereas the micellar suspension was diluted 200 times in DMSO before being subjected to analysis. In order to reduce the carryover effects and an excessive accumulation of lipids in the column, samples of solution and micelles were injected alternately. The column was periodically washed with chloroform and methanol to avoid the accumulation of lipids and impairment of performance. All measurements were performed in triplicate and the results were expressed as the mean±D.S.

Series [2] deals with HeLa cells. Put plainly: MTT proliferation assay, activity of stored everolimus samples. In kind it is cell-based. To be noted: for day of drastic decrease in anti-proliferative activity: tested at 5 nM. Here is the method:
(§1) Both HeLa cells (cervical cancer cell line) and SH-SY5Y cells (neuroblastoma cell line) were obtained from the American Type Culture Collection (Manassas, Va., USA) and cultured in Dulbecco's Modified Eagle's medium (DMEM with L-glutamine) supplemented with 10% (v/v) heat-inactivated foetal bovine serum (FBS), 100 U of penicillin, 100 U of streptomycin in a 5% CO2 humidified incubator at 37° C. Cell viability was verified with the standard Trypan Blue method.
(§2) The activity of everolimus in organic solution and in the micelles was determined by evaluating cell proliferation after the treatment. Briefly, the HeLa and SH-SY5Y cells were seeded in a 96-well plate at a concentration of 3000 cells/well and 6000 cells/well, respectively, and were maintained in the culture medium (100 μl) for 24 hours. After incubation at 37, 25 and 4° C. for 7, 14, 35, 50 and 77 days, the samples were suspended in the cell culture medium at a final concentration of 5 nM. Untreated cells, cells treated with a 10% v/v DMSO/saline solution (Veh) and empty micelles in saline solution, both diluted in a manner equivalent to the drug, were analysed as controls. A freshly prepared everolimus solution was used as the reference standard. Cell proliferation was evaluated using the 3-[4,5-dimethylthiazol-2-yl]-2,5-diphenyltetrazolium (MTT) assay (Sigma-Aldrich) according to the manufacturer's manual. The cells were mixed with 10 μl of MTT (0.5 mg/ml) and kept in a humidified incubator at 37° C. for 4 hours. Subsequently, 100 μl of a solubilisation solution (10% SDS with 0.01 N HCl) were added to each well. Formazan crystal solubilisation was carried out overnight in an incubator a 37° C. The next day, cell proliferation was evaluated by means of spectrophotometric readings taken with a Beckman Coulter DTX 880 multimode detector (Beckman Coulter Inc., Brea, Calif., USA) using a line at 589 nm and reference at 650 nm.
(§3) In order to correlate the stability of everolimus with the preservation of activity, samples incubated under the same conditions as in the stability study were dosed in HeLa and SH-SY5Y cells at established points in time. For this test the cell lines were seeded and maintained for 24 hours at 37° C. prior to treatment. […] The activity of the solution, by contrast, began to wane at 35 days, confirming a prolonged effect of inhibition of the micelles on cell proliferation. […] In order to better quantify the differences among the various samples in terms of the residual activity of everolimus, the residual anti-proliferative activity was calculated and is shown in FIGS. 3A and 3B.

Series [3] relates to SH-SY5Y cells. The description is as above. In kind it is cell-based. To be noted: for day of drastic decrease in anti-proliferative activity: tested at 5 nM. The procedure: as §1, §2, §3

In the case of `CO[C@H]1C[C@@H]2CC[C@@H](C)[C@@](O)(O2)C(=O)C(=O)N2CCCC[C@H]2C(=O)O[C@H]([C@H](C)C[C@@H]2CC[C@@H](OCCO)[C@H](OC)C2)CC(=O)[C@H](C)/C=C(\C)[C@@H](O)[C@@H](OC)C(=O)[C@H](C)C[C@H](C)/C=C/C=C/C=C/1C` [solution, Everolimus], the figures for the “day by which everolimus had decayed (HPLC)” value in series [1] (stored at 4° C.) and in series [1] (stored at 25° C.) were ≤ 50 days and ≤ 35 days, respectively. For the same molecule, the “day by which everolimus had fallen to zero / decayed (HPLC)” value in series [1] (stored at 37° C.) is ≤ 14 days. For the same molecule, the “day at which activity began to wane” value in series [2] (5 nM) and in series [3] (5 nM) was 35 days in each case. For the same molecule, the “day of drastic decrease in anti-proliferative activity” value is 50 days in series [2] (sample stored at 4° C.); 35 days in series [2] (sample stored at 25° C.); 14 days in series [2] (sample stored at 37° C.); 50 days in series [3] (sample stored at 4° C.); 35 days in series [3] (sample stored at 25° C.); 14 days in series [3] (sample stored at 37° C.).

For the origin of these results see patent US20230133251A1, “ADMINISTRATION OF mTOR INHIBITORS INTO THE CENTRAL NERVOUS SYSTEM” (priority 2020, published 2023).
